Data taken from US11857637B2, “Anti-CD25 antibody-maytansine conjugates and methods of use thereof” (priority 2019, dated 2024).
Read-outs that look alike come from different tables or passages of the source.

What was measured:
[1] = tested on: CD25-positive leukemia and lymphoma cell lines, SU-DHL-1, HDLM-2, EoL-1, L-540, and Karpas 299; experiment: In vitro cytotoxicity, range over the five cell lines; format: cell-based; conditions: read-out: IC50 concentrations (range across assays)
Procedure: (§1) The CD25-positive leukemia and lymphoma cell lines, SU-DHL-1, HDLM-2, EoL-1, L-540, and Karpas 299, were obtained from the ATCC and DSMZ cell banks, or were tested at Crown Bioscience, Inc. The cells were maintained in RPMI-1640 medium (Cellgro) supplemented with 10 or 20% fetal bovine serum (Invitrogen) and Glutamax (Invitrogen). 24 h prior to plating, cells were passaged to ensure log-phase growth. On the day of plating, 5000 cells/well were seeded onto 96-well plates in 100 μL normal growth medium supplemented with 10 IU penicillin and 10 μg/mL streptomycin (Cellgro). Cells were treated at various concentrations with 20 μL of diluted analytes, and the plates were incubated at 37° C. in an atmosphere of 5% CO2. After 5 d, 100 μL/well of Cell Titer-Glo reagent (Promega) was added, and luminescence was measured using a Molecular Devices SpectraMax M5 plate reader. GraphPad Prism software was used for data analysis.

SU-DHL-1 cells = experiment: In vitro cytotoxicity (Cell Titer-Glo, 5 d); format: cell-based; conditions: SU-DHL-1 cell line, 5 d incubation, FIG. 6
Procedure: as §1

Karpas 299 cells = experiment: In vitro cytotoxicity (Cell Titer-Glo, 5 d); format: cell-based; conditions: Karpas 299 cell line, 5 d incubation, FIG. 10
Procedure: as §1

HDLM-2 cells = experiment: In vitro cytotoxicity (Cell Titer-Glo, 5 d); format: cell-based; conditions: HDLM-2 cell line, 5 d incubation, FIG. 7
Procedure: as §1

L-540 cells = experiment: In vitro cytotoxicity (Cell Titer-Glo, 5 d); format: cell-based; conditions: L-540 cell line, 5 d incubation, FIG. 9
Procedure: as §1

EoL-1 cells = experiment: In vitro cytotoxicity (Cell Titer-Glo, 5 d); format: cell-based; conditions: EoL-1 cell line, 5 d incubation, FIG. 8
Procedure: as §1

Karpas 299 xenograft = Karpas 299 xenograft study; format: in vivo, Female CB17.SCID mice; conditions: 10 mg/kg intravenously, single dose or qwk×4; at 28 days; subcutaneous Karpas 299 tumors, FIG. 11
Procedure: Female CB17.SCID mice (6/group) were inoculated subcutaneously with 5×10^6 Karpas 299 cells. Treatment began when the tumors reached an average of 205 mm^3, at which time the animals were dosed intravenously with vehicle alone or the anti-CD25 HIPS-4AP-maytansine conjugate (10 mg/kg). One group received a single dose of the anti-CD25 HIPS-4AP-maytansine conjugate, while another group was dosed once per week for a total of four doses (qwk×4). The animals were monitored twice weekly for body weight and tumor size. Animals were euthanized when tumors reached 2000 mm^3.

Compound | IC50 ([1]; 120 h) [nM] | IC50 (SU-DHL-1 cells) [nM] | IC50 (Karpas 299 cells) [nM] | IC50 (HDLM-2 cells) [nM] | IC50 (L-540 cells) [nM] | IC50 (EoL-1 cells) [nM] | IC50 ([1]; range over all five tested cell lines, 5 d incubation) [nM] | detectable tumors at median time to endpoint of vehicle control groups (Karpas 299 xenograft)
COc1cc2cc(c1Cl)N(C)C(=O)C[C@H](OC(=O)[C@H](C)N(C)C(C)=O)[C@]1(C)O[C@H]1[C@H](C)[C@@H]1C[C@@](O)(NC(=O)O1)[C@H](OC)/C=C/C=C(\C)C2 [free maytansine, maytansine] | 0.03 to 0.19 | – | – | – | – | – | – | –
anti-CD25 HIPS-4AP-maytansine conjugate: C-terminally aldehyde-tagged anti-CD25 antibody (daclizumab) conjugated to a maytansine payload attached to a HIPS-4AP linker; DAR 1.75-1.84 | – | 0.24 | 0.49 | 0.06 | 0.43 | 0.07 | 0.06 to 0.49 | none of the animals that had been dosed with the anti-CD25 HIPS-4AP-maytansine conjugate had detectable tumors
